Assay results as given in the NIST ThermoML archive (doi:10.1016/j.fluid.2016.10.005).
± gives the expanded uncertainty stated by the source.

Legend:
[1] = molar heat capacity at constant pressure; conditions: 101 kPa, Liquid, DSC
[2] = molar heat capacity at constant pressure; mn = molality of the nth substance listed, in mol/kg; conditions: 101 kPa, Liquid, DSC, m2 = 0

| SMILES | molar heat capacity at constant pressure ([1]; 278.15 K) [J/K/mol] | molar heat capacity at constant pressure ([1]; 283.15 K) [J/K/mol] | molar heat capacity at constant pressure ([1]; 288.15 K) [J/K/mol] | molar heat capacity at constant pressure ([1]; 293.15 K) [J/K/mol] | molar heat capacity at constant pressure ([1]; 298.15 K) [J/K/mol] | molar heat capacity at constant pressure ([1]; 308.15 K) [J/K/mol] | molar heat capacity at constant pressure ([1]; 318.15 K) [J/K/mol] | molar heat capacity at constant pressure ([1]; 328.15 K) [J/K/mol] | molar heat capacity at constant pressure ([1]; 333.15 K) [J/K/mol] | molar heat capacity at constant pressure ([2]; 278.15 K) [J/K/mol] | molar heat capacity at constant pressure ([2]; 283.15 K) [J/K/mol] | molar heat capacity at constant pressure ([2]; 288.15 K) [J/K/mol] | molar heat capacity at constant pressure ([2]; 293.15 K) [J/K/mol] | molar heat capacity at constant pressure ([2]; 298.15 K) [J/K/mol] | molar heat capacity at constant pressure ([2]; 308.15 K) [J/K/mol] | molar heat capacity at constant pressure ([2]; 318.15 K) [J/K/mol] | molar heat capacity at constant pressure ([2]; 328.15 K) [J/K/mol] | molar heat capacity at constant pressure ([2]; 333.15 K) [J/K/mol] |
| --- | --- | --- | --- | --- | --- | --- | --- | --- | --- | --- | --- | --- | --- | --- | --- | --- | --- | --- |
| CCCCCOCCOCCOCCO [ethanol, 2-[2-[2-(pentyloxy)ethoxy]ethoxy]-] | 471.7 ± 18 | 473.61 ± 18 | 475.62 ± 18 | 477.67 ± 19 | 479.72 ± 19 | 484.23 ± 19 | 489.08 ± 19 | 494.37 ± 19 | 497.05 ± 19 |  |  |  |  |  |  |  |  |  |
| O [water] | 75.75 ± 2.9 | 75.58 ± 2.9 | 75.47 ± 2.9 | 75.39 ± 2.9 | 75.35 ± 2.9 | 75.32 ± 2.9 | 75.34 ± 2.9 | 75.4 ± 2.9 | 75.48 ± 2.9 |  |  |  |  |  |  |  |  |  |
| O [water] + CCCCCOCCOCCOCCO |  |  |  |  |  |  |  |  |  | 75.75 ± 2.9 | 75.58 ± 2.9 | 75.47 ± 2.9 | 75.39 ± 2.9 | 75.35 ± 2.9 | 75.32 ± 2.9 | 75.34 ± 2.9 | 75.4 ± 2.9 | 75.48 ± 2.9 |
